Literature values as cited in patent US11759449B2, “Methods for reducing oxidative effects of free radicals” (Hugg LLC, priority 2021, dated 2023).

Legend:
[1] = background, refs (2, 3)
[2] = background, refs (2, 3); remark: listed apart in the source

- bioavailability [1]: poor
- solubility [2]: poor
SMILES: Oc1ccc(C=Cc2cc(O)cc(O)c2)cc1 [resveratrol]
